Measurements reported in patent US5110800A, “Derivatives of erythromycylamine” (Eli Lilly and Company, priority 1989, dated 1992).

Columns and labels:
[1] = test system: Klebsiella pneumoniae X68; assay: MIC, standard agar-dilution assay; type: cell-based; conditions: Table IV; agar dilution
[2] = test system: Streptococcus pneumoniae Park I; assay: MIC, standard agar-dilution assay; type: cell-based; conditions: Table IV; agar dilution
[3] = test system: Staphylococcus epidermidis 270; assay: MIC, standard agar-dilution assay; type: cell-based; conditions: Table IV; constitutively erythromycin-resistant
From the text: (§1) In addition to excellent in vitro activity against erythromycin-sensitive bacteria, several members of this new series have shown in vitro activity against erythromycin-resistant strains. These include strains which are inducibly-resistant to erythromycin (S. aureus V41 and X400 and S. epidermidis EPI1) and even strains which are constitutively-resistant (S. epidermidis 270).

[4] = test system: Staphylococcus aureus X400; assay: MIC, standard agar-dilution assay; type: cell-based; conditions: Table IV; methicillin-resistant strain; inducibly erythromycin-resistant
From the text: as §1

[5] = test system: Staphylococcus aureus V41; assay: MIC, standard agar-dilution assay; type: cell-based; conditions: Table IV; penicillin-resistant strain; inducibly erythromycin-resistant
From the text: as §1

[6] = test system: Streptococcus pyogenes C203; assay: MIC, standard agar-dilution assay; type: cell-based; conditions: Table IV; agar dilution
[7] = test system: Haemophilus influenzae 76; assay: MIC, standard agar-dilution assay; type: cell-based; conditions: Table IV; ampicillin-resistant strain
[8] = test system: Staphylococcus aureus X1.1; assay: MIC, standard agar-dilution assay; type: cell-based; conditions: Table IV; agar dilution
[9] = test system: Staphylococcus epidermidis 222; assay: MIC, standard agar-dilution assay; type: cell-based; conditions: Table IV; agar dilution
[10] = test system: Staphylococcus aureus S13E; assay: MIC, standard agar-dilution assay; type: cell-based; conditions: Table IV; agar dilution
[11] = test system: Haemophilus influenzae C.L.; assay: MIC, standard agar-dilution assay; type: cell-based; conditions: Table IV; ampicillin-sensitive strain
[12] = test system: Escherichia coli EC14; assay: MIC, standard agar-dilution assay; type: cell-based; conditions: Table IV; agar dilution
[13] = test system: Staphylococcus aureus; assay: Oral ED50 against experimental infection in mice; type: in vivo; conditions: two doses, protects 50% of animals
Protocol: (§2) The new derivatives of this invention have also shown in vivo antimicrobial activity against experimental bacterial infections. When two doses of test compound were administered to mice in experimental infections, the activity observed was measured as an ED50 value [effective dose in mg/kg to protect 50% of the test animals: see Warren Wick, et al., J. Bacteriol. 81, 233-235 (1961)].

[14] = test system: Streptococcus pyogenes; assay: Oral ED50 against experimental infection in mice; type: in vivo; conditions: two doses, protects 50% of animals
Protocol: as §2

[15] = test system: Streptococcus pneumoniae; assay: Oral ED50 against experimental infection in mice; type: in vivo; conditions: two doses, protects 50% of animals
Protocol: as §2

[16] = test system: Streptococcus sp. group D 2041; assay: MIC, standard agar-dilution assay; type: cell-based; conditions: Table IV; agar dilution
[17] = test system: Streptococcus sp. group D X66; assay: MIC, standard agar-dilution assay; type: cell-based; conditions: Table IV; agar dilution

Q: Which results are given for “Endo- and Exo-9-Deoxo-9-[(bicyclo[2.2.1]hept-2-en-5-yl-methyl)amino]erythromycin [Compound 19]”?
A: minimal inhibitory concentration (MIC) [1]: -- (-- = >128); minimal inhibitory concentration (MIC) [2]: 0.015 µg/mL; minimal inhibitory concentration (MIC) [3]: -- (-- = >128); minimal inhibitory concentration (MIC) [4]: -- (-- = >128); minimal inhibitory concentration (MIC) [5]: -- (-- = >128); minimal inhibitory concentration (MIC) [6]: 0.25 µg/mL; minimal inhibitory concentration (MIC) [7]: 8 µg/mL; minimal inhibitory concentration (MIC) [8]: 2 µg/mL; minimal inhibitory concentration (MIC) [9]: 1 µg/mL; minimal inhibitory concentration (MIC) [10]: 2 µg/mL; minimal inhibitory concentration (MIC) [11]: 8 µg/mL; minimal inhibitory concentration (MIC) [12]: 64 µg/mL; Oral ED50 [13]: > 50 mg/kg; Oral ED50 [14]: 16.6 mg/kg; Oral ED50 [15]: 25.0 mg/kg; minimal inhibitory concentration (MIC) [16]: 8 µg/mL; minimal inhibitory concentration (MIC) [17]: 1 µg/mL
